The target in test [1] is GTPγS-bound human HRasG12V / human c-Raf-1 Ras binding domain (RBD) (Homo sapiens (Human), UniProt P01112, G12V). Briefly: Ras-Raf binding inhibition ELISA. On the procedure:
The in vitro Ras-Raf binding inhibitory activity of the compound of the present invention was evaluated by an ELISA method (Enzyme-Linked ImmunoSorbent Assay) described below.
Ras and Raf used upon the evaluation were purified and activated by the following method.
Using a pGEX6P-1 vector (GE Healthcare), human HRasG12V (full length, 1-189 amino acid residues) and human c-Raf-1 Ras binding domain (RBD) (50-131 amino acid residues) were each allowed to express as a fusion body with glutathione S-transferase (GST) in E. coli.
GST-HRasG12V-expressing cells were subjected to ultrasonication in a buffer {50 mM Tris-HCl pH 7.4, 150 mM NaCl, 5 mM MgCl2, 1 mM ethylenediaminetetraacetic acid (EDTA), 1 mM dithiothreitol (DTT), 10% glycerol, and 1% Triton-X100}, and were then centrifuged at 100,000×g for 30 minutes, so as to collect the supernatant as a Ras protein fraction. HRasG12V in the supernatant was immobilized on a glutathione-agarose resin, and GST was then cleaved with PreScission Protease (GE Healthcare) for purification. The obtained HRasG12V was mixed with guanosine 5′-O-[gamma-thio]triphosphate trisodium salt (GTPTS) of 1000 times higher concentration at 30° C. for 1 hour, and thereafter, 20 mM MgCl2 (final concentration) was added to stop the reaction and collect the GTPgS-loaded HRasG12V as a product.
On the other hand, GST-c-Raf-1 RBD-expressing cells were subjected to ultrasonication in the same buffer as described above, and were then centrifuged at 100,000×g for 30 minutes, so as to collected the supernatant as a GST-c-Raf-1 RBD protein fraction.
The in vitro Ras-Raf binding inhibitory activity of the compound of the present invention was evaluated by an ELISA method described below.
GST-c-Raf-1 RBD diluted with a Ras-Raf binding buffer (50 mM Tris-HCl pH7.4, 150 mM NaCl, 5 mM MgCl2, 1 mM EDTA, and 1% Triton-X100) was added to each well of a glutathione-coated 96-well plate (Thermo Fisher Scientific.), and was incubated at 30° C. for 1 hour, to immobilize Raf on the well. The unbound free Raf was eliminated by washing the well with the Ras-Raf binding buffer three times. Subsequently, GTPTS-bound HRasG12V diluted with the Ras-Raf binding buffer and each compound solution (final DMSO concentration: 10%) were applied to each well, and the resulting mixture was then incubated at 30° C. for 1 hour, so that Ras and Raf were allowed to bind to each other. Thereafter, the plate was washed with the Ras-Raf binding buffer twice, and was then subjected to a blocking treatment at room temperature for 20 minutes, using TBS-Tween {10 mM Tris-HCl pH 7.4, 150 mM NaCl, and 0.05% (w/v) Tween-20}-5% (w/v) bovine serum albumin (BSA). After that, an anti-HRas antibody (C-20, Santa Cruz) or an anti-HRas antibody (259, Santa Cruz), which had been 1000 times diluted with TBS-Tween-5% BSA, was added to the reaction mixture, and incubated at room temperature for 1 hours. After the treatment with the primary antibody, the plate was washed with TBS-Tween-5% BSA three times, and a horseradish peroxidase-labeled secondary antibody against rabbit immunoglobulin G (GE Healthcare) of 1000 times diluted with TBS-Tween-5% BSA, was added to the plate, followed by incubation at room temperature for 1 hour. After the treatment with the secondary antibody, the plate was washed with TBS-Tween-5% BSA three times, and a substrate solution (TMB) was then added to the plate, followed by incubation at room temperature for 15 minutes for coloration. Finally, 2 M H2SO4 was added to stop color development (coloration reaction kit: Nacalai Tesque). The absorbance at 450 nm (OD450) was measured, so that the color intensity was quantified. Inhibition by the test compound was determined according to the following equation: […]
IC50 (*) in which the anti-HRas antibody (259, Santa Cruz) was used
Background: An ELISA detects its analyte on a solid surface through an enzyme-linked reagent.

In test [2] the test system is promyelocytic leukemia cells HL60 (N-RasQ61L). Briefly: Cell growth inhibition, suspension cells HL60. Type of test: cell-based. The settings on record: Homo sapiens, HL-60, 72 hours; for inhibition at 10 µM: read-out: HL-60 (NRasQ61L) % inhibition at 10 μM (***). On the procedure:
The cell growth inhibitory activity of the compound of the present invention on human culture cells having active-type mutation in Ras was evaluated by the below-mentioned method using suspension cancer cells {acute lymphoblastic leukemia cells CCRF-CEM (K-RasG12D), promyelocytic leukemia cells HL60 (N-RasQ61L), acute lymphoblastic leukemia cells MOLT4 (N-RasG12C), and small cell lung cancer cells SHP77 (K-RasG12V)} and adherent cancer cells {large bowel cancer cells SW480 (K-RasG12V) and large bowel cancer cell SW620 (K-RasG12V)}.
(Case of suspension cells) The cells suspended in a medium containing 0.5% (v/v) fetal bovine serum (FBS) and each compound solution (final DMSO concentration: 1%) were seeded on a 96-well plate (2 to 4×10^4 cells/well), and the resulting mixture was then cultured at 37° C. in the presence of 5% CO2 for 72 hours.
Thereafter, the number of viable cells was measured using Cell Counting Reagent (Nacalai Tesque) in accordance with the manufacturer's instructions. Inhibition by the test compound was determined according to the following equation: […]

Where [3] appears, read: anti-HRas antibody 259 (*), read-out: ELISA IC50 (μM): 1st Ab_259 (*).
Where [4] appears, read: anti-HRas antibody C-20, read-out: ELISA IC50 (μM): 1st Ab_C-20.

Like-named read-outs stand apart in the source and are kept apart here.

The values below come from US20250091994A1, “RAS/RAF BINDING INHIBITOR COMPOUND” (NATIONAL UNIVERSITY CORPORATION KOBE UNIVERSITY, priority 2021, published 2025).

GTPγS-bound human HRasG12V / human c-Raf-1 Ras binding domain (RBD), sequence (P01112 whole entry G12V, the tested form may be a part): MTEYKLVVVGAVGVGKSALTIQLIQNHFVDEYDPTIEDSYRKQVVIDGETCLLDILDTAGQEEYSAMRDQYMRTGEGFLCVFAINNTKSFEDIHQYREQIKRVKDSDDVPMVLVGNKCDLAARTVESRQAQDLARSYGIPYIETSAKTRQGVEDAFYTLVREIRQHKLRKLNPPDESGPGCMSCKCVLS

On to `CC(=O)N1/C(=C\c2ccc3cc(CNC4C[C@@H](C)O[C@@H](C)C4)ccc3n2)C(=O)c2ccccc21` (mixture of isomers) [Example 136, (Z)-1-acetyl-2-((6-((((2SR,6RS)-2,6-dimethyltetra-hydro-2H-pyran-4-yl)amino)meth-yl)quinolin-2-yl)-methylene)indolin-3-one], for which the IC50 (usually the concentration needed to halve the response being measured) in test [1] (setting [3]) was found to be 1.7 µM.
Still for that read-out and setting: the result for `CC(=O)N1/C(=C\c2ccc3cc(CNC4CC(C)O[C@H](C)C4)ccc3n2)C(=O)c2ccccc21` (mixture of isomers) [Example 137, (Z)-1-acetyl-2-((6-((((2SR,6SR)-2,6-dimethyltetra-hydro-2H-pyran-4-yl)amino)meth-yl)quinolin-2-yl)-methylene)indolin-3-one] reads 1.3 µM.
For the molecule `CC(=O)N1/C(=C\c2cc(-c3nc[nH]n3)c3cc(C(=O)N4CCOCC4)ccc3n2)C(=O)c2ccccc21` (racemic) [Example 212, 1-acetyl-2-((6-(morpholine-4-carbonyl)-4-(1H-1,2,4-triazol-3-yl)-quinolin-2-yl)-methylene)indolin-3-one], the inhibition – broadly, the change of the read-out against control, counted positive when it falls – at 1 µM in test [1] was 59.9%. Also, the IC50 in test [1] (setting [4]) was found to be 0.8 µM.
`COc1cc(/C=C2/C(=O)c3ccccc3N2C(C)=O)ccc1O` [Example 3, 1-acetyl-2-(4-hydroxy-3-meth-oxybenzylidene)-indolin-3-one] had an inhibition at 100 µM in test [1] of 57%.
As for `CC(=O)N1/C(=C\c2ccc(OCC(N)=O)cc2)C(=O)c2ccccc21` [Example 5, 2-(4-((1-acetyl-3-oxoindolin-2-ylidene)methyl)-phenoxy)acetamide], in test [1], the inhibition at 100 µM stood at 71%.
Molecule `COc1cc(/C=C2/C(=O)c3ccccc3N2C(C)=O)ccc1OCCN1CCOCC1` [Example 7, (Z)-1-acetyl-2-(3-methoxy-4-(2-morpholinoethoxy)-benzylidene)indolin-3-one] registered an inhibition at 100 µM in test [1] of 83%.
`COc1cc(/C=C2/C(=O)c3ccccc3N2C(C)=O)ccc1OCCOc1ccccc1` [Example 12, 1-acetyl-2-(3-methoxy-4-(2-phenoxyethoxy)-benzylidene)-indolin-3-one] had an inhibition at 100 µM in test [1] of 49%.
With `CC(=O)N1/C(=C\c2ccc(OCC(N)=O)c(OC(C)C)c2)C(=O)c2ccccc21` [Example 30, 2-(4-((1-acetyl-3-oxoindolin-2-ylidene)methyl)-2-isopropoxy-phenoxy)acet-amide], 100 µM produced 63% inhibition in test [1].
Consider `CC(=O)N1/C(=C\c2ccc(OCC(=O)N3CCOCC3)c(F)n2)C(=O)c2ccccc21` [Example 32, (Z)-1-acetyl-2-((6-fluoro-5-(2-morpholino-2-oxoethoxy)-pyridin-2-yl)-methylene)-indolin-3-one], for which, in test [1] (setting [4]), the IC50 was determined as 14 µM.
As to `CC(=O)N1/C(=C\c2ccc(C(=O)N3CCOCC3)cn2)C(=O)c2ccccc21` [Example 70, (Z)-1-acetyl-2-((5-(morpholine-4-carbonyl)pyridin-2-yl)methylene)-indolin-3-one], the inhibition at 1 µM in test [2] (1 μM, read-out: HL-60 (NRasQ61L) % inhibition at 1 μM) is 33%. Also, the IC50 in test [1] (setting [4]) is 14 µM.
Consider `CC(=O)N1/C(=C\c2ccc3oc(C(=O)N4CCOCC4)cc3n2)C(=O)c2ccccc21` [Example 72, (Z)-1-acetyl-2-((2-(morpholine-4-carbonyl)furo [3,2-b]pyridin-5-yl)methylene)-indolin-3-one], for which the IC50 in test [1] (setting [3]) stood at 3.6 µM.
On to `CC(=O)N1/C(=C\c2ccc3cc(CN4CCN(C5COC5)CC4)ccc3n2)C(=O)c2ccccc21` [Example 74, (Z)-1-acetyl-2-((6-((4-(oxetan-3-yl)piperazin-1-yl)methyl)quinolin-2-yl)methylene)-indolin-3-one], for which the inhibition at 10 µM in test [2] is 99%. In addition, the IC50 in test [1] (setting [3]) amounted to 0.71 µM.
On to `CC(=O)N1/C(=C\c2ccc3cc(/C=C/C(=O)N4CCN(C5COC5)CC4)ccc3n2)C(=O)c2ccccc21` [Example 78], for which, in test [2], the inhibition at 10 µM was found to be 92%. Moreover, in test [1] (setting [3]), the IC50 was determined as 0.93 µM.
As to `CC(=O)N1/C(=C/c2nc3ccc(C(=O)N4CC(C)OC(C)C4)cc3s2)C(=O)c2ccccc21` (stereo not drawn) [Example 101, (E)-1-acetyl-2-((6-(2,6-dimethyl-morpholine-4-carbonyl)benzo [d]thiazol-2-yl)-methylene)indolin-3-one], the inhibition at 10 µM in test [2] was 87%.
For the molecule `CC(=O)N1/C(=C\c2nc3ccc(CNC4CCOCC4)cc3s2)C(=O)c2ccccc21` [Example 134], in test [1] (setting [3]), the IC50 came to 1.1 µM.
Take `CC(=O)N1/C(=C/c2nc3ccc(CNC4CCOCC4)cc3s2)C(=O)c2ccccc21` [Example 135, (E)-1-acetyl-2-((6-(((tetrahydro-2H-pyran-4-yl)-amino)methyl)-benzo[d]thiazol-2-yl)methylene)-indolin-3-one]: the inhibition at 10 µM in test [2] was 98%.
The molecule `CC(=O)N1/C(=C\c2cc(-c3cccc4cccnc34)c3cc(C(=O)O)ccc3n2)C(=O)c2ccccc21` [Example 155, (Z)-2-((1-acetyl-3-oxoindolin-2-ylidene)methyl)-[4,8′-biquinoline]-6-carboxylic acid] registered an inhibition at 1 µM in test [1] of 59.3%. The IC50 in test [1] (setting [4]) was found to be 0.7 µM.
`CC(=O)N1/C(=C\c2cc(-c3ccc(C(=O)O)cc3)c3cc(C(=O)N4CCOCC4)ccc3n2)C(=O)c2ccccc21` [Example 174, (Z)-4-(2-((1-acetyl-3-oxoindolin-2-ylidene)methyl)-6-(morpholine-4-carbonyl)quinolin-4-yl)benzoic acid]: the inhibition at 1 µM in test [1] was found to be 70.1%. The IC50 in test [1] (setting [4]) is 0.5 µM.
Molecule `CC(=O)N1/C(=C\c2cc(-c3cccc(C(=O)O)c3)c3cc(C(=O)N4CCOCC4)ccc3n2)C(=O)c2ccccc21` [Example 175, (Z)-3-(2-((1-acetyl-3-oxoindolin-2-ylidene)methyl)-6-(morpholine-4-carbonyl)quinolin-4-yl)benzoic acid] yielded an inhibition at 1 µM in test [1] of 67.2%. Besides, in test [1] (setting [4]), the IC50 was determined as 0.5 µM.
In test [1], `CC(=O)N1/C(=C\c2cc(-c3ccccc3C(=O)O)c3cc(C(=O)N4CCOCC4)ccc3n2)C(=O)c2ccccc21` [Example 176, (Z)-2-(2-((1-acetyl-3-oxoindolin-2-ylidene)methyl)-6-(morpholine-4-carbonyl)quinolin-4-yl)benzoic acid] gave an inhibition at 1 µM of 51.1%. Also, the IC50 in test [1] (setting [4]) was found to be 1 µM.
`CC(=O)N1/C(=C\c2cc(-c3cccnn3)c3cc(C(=O)N4CCOCC4)ccc3n2)C(=O)c2ccccc21` [Example 191, (Z)-1-acetyl-2-((6-(morpholine-4-carbonyl)-4-(pyridazin-3-yl)-quinolin-2-yl)-methylene)indolin-3-one] had an inhibition at 1 µM in test [1] of 49.2%. Further, the IC50 in test [1] (setting [4]) amounted to 1.1 µM.
